Tests used:
Erk1/2 = experiment: BK-stimulated Erk1/2 phosphorylation in skin fibroblasts (Western blot, normalized to total Erk1/2); format: cell-based, human; settings: 10 nM BK 5 min
Experimental: Banked AC and AD fibroblasts were grown to 80-100% confluence before they were “starved” in a serum-free DMEM overnight. Cells were treated with 10 nM BK at 37° C. for different intervals to establish a time course for BK effects. The same volume of PBS was added to a control flask of cells of each line. The reaction was terminated by removing the medium, rapidly rinsing the cells with pre-cooled PBS, pH 7.4, and transferring the flask onto dry ice/ethanol.
(§1) For inhibition studies, cells were preincubated with the following concentration of inhibitor at 37° C. for the intervals indicated: 2ABP (50 μM for 30 min); PP1 (10 μM for 15 min); Ly294002 (5 μM for 15 min); and BiSM-1 (5 μM for 15 min). A parallel control flask was incubated with an identical volume of DMSO vehicle. At the end of this incubation, the same inhibitor at the indicated concentration was added and followed immediately by BK to a final concentration of 10 nM. BK (10 nM) was also added to DMSO controls. Basal controls were cells to which neither BK nor inhibitors were added. After a 5-min incubation at 37° C., the reaction was terminated as above.
Cell lysates were prepared from cells of the various groups. Flasks were moved from dry ice/ethanol to ice water. Each flask received 1 ml of lysis buffer (10 mM Tris pH 7.4, 150 mM NaCl, 1 mM EDTA, 1 mM EGTA, pH 8, 0.5% NP-40, 1% Triton X-100, 1% protease inhibitor cocktail (Sigma), 1% cocktail of serine/threonine (Ser/Thr) phosphatase inhibitor and tyrosine (Tyr) phosphatase inhibitor (Sigma). After rocking on an end-to-end shaker in a cold room for 30 min, cells were collected from each flask with a cell scraper. […]
Cell lysates were boiled in an equal volume of 2× SDS-sample buffer for 10 min. […] Phosphorylated Erk1/2 was detected with anti-phospho-Erk1/2 antibody using the SuperSignal ECL detection kit. […]
Signals from phosphorylated and nonphosphorylated Erk1/2 (or CREB) were scanned with a Fuji film LAS-1000 Plus scanner. The mean optical density of each protein band was measured using NIH Image software. […]

CREB = experiment: BK-stimulated CREB phosphorylation (Ser133) and total CREB in skin fibroblasts (Western blot); format: cell-based, human; settings: 10 nM BK 10 min; for Effect on expression of the CREB protein: 10 μM for 15 min
Experimental: FIGS. 5A, 5B1, 5B2, 5C1 and 5C2. Changes in phosphorylation of, and amounts of CREB after BK stimulation. AC and AD cells were treated with 10 nM BK for 5 or 10 min. Phosphorylated CREB (P-CREB) was measured using a anti-phospho-CREB-Serl33 antibody on Western blots. The mean densities of P-CREB were normalized against the total amount of CREB measured using an anti-“regular CREB” antibody and subjected to statistic analyses.
FIGS. 6A1, 6A2, 6B1, 6B2, 6C1 and 6C2. Effects of different inhibitors on BK-stimulated phosphorylation of CREB. AC and AD cells were preincubated at 37° C. for 15 min with 5 μM BiSM-1 (FIG. 6A), 10 μM PP1 (FIG. 6B), or 5 μM Ly294002 (FIG. 6C) before incubation with 10 nM BK for 10 min Nointalization was performed as with FIGS. 5A-5C and statistical significance of differences were evaluated by 2-way ANOVA. **p<0.0001; *p<0.05.
as §1
CREB was detected using analogous methods.
Signals from phosphorylated and nonphosphorylated Erk1/2 (or CREB) were scanned with a Fuji film LAS-1000 Plus scanner. The mean optical density of each protein band was measured using NIH Image software. Values from the phosph-Erk1/2 signals were normalized respectively against the total signal of Erk1/2. After normalization, data from treated cells was converted to a percentage of the basal control and subjected to statistical analyses.

[1] = AC and AD cells, preincubation 10 μM for 15 min

## CN(C)CCCn1cc(C2=C(c3c[nH]c4ccccc34)C(=O)NC2=O)c2ccccc21 [BiSM-1, bisindolylmaleimide-1]
Erk1/2; both AC and AD cells, preincubation 5 μM for 15 min
  Effect on BK-induced phosphorylation of Erk1/2: abolished
CREB; AC and AD cells (no group effect), preincubation 5 μM for 15 min
  Effect on BK-stimulated CREB phosphorylation: completely abolished

## O=c1cc(N2CCOCC2)oc2c(-c3ccccc3)cccc12 [LY294002]
Erk1/2; AD cells, preincubation 5 μM for 15 min
  Effect on BK-induced Erk1/2 phosphorylation: failed to inhibit

## Cc1ccc(-c2nn(C(C)(C)C)c3ncnc(N)c23)cc1 [PP1]
Erk1/2; [1]
  Effect on BK-induced Erk1/2 phosphorylation: completely inhibited
CREB; [1]
  Effect on BK-stimulated CREB phosphorylation: inhibited
CREB; AD cells
  Effect on expression of the CREB protein: not observed
CREB; control (AC) cells
  Effect on expression of the CREB protein: increased expression of the CREB protein

— patent publication US9188595B2, “Alzheimer's disease diagnosis based on mitogen-activated protein kinase phosphorylation” (Blanchett Rockefeller Neurosciences Institute, priority 2001, dated 2015)
